These results are taken from patent US8741836B2, “Polypeptides” (Novo Nordisk A/S, priority 2011, dated 2014).

Data set [1] is described as follows: Assay (IV) determination of solubility. Format: physicochemical. The protocol:
Assay (IV)—Determination of Solubility
The polypeptide was dissolved in water at −500 nmol/ml and mixed 1:1 with a series of buffers (100 mM glycylglycine pH 3.0, 100 mM glycylglycine pH 4.0, 100 mM glycylglycine pH 5.0, 100 mM bistrispropane pH 6.0, 100 mM bistrispropane pH 6.5, 100 mM bistrispropane pH 7.0, 100 mM bistrispropane pH 7.5, 100 mM bistrispropane pH 8.0). After 18 hours at room temperature the samples were centrifuged and the polypeptide concentration determined by HPLC.

Data set [2] has as its target T1, human amylin 3(a) receptor (human calcitonin receptor + RAMP-3) (Homo sapiens, UniProt O60896+P30988).
T1 construct: expressed in transfected cells; CRE-luciferase reporter
T1 sequence (P30988 25-474): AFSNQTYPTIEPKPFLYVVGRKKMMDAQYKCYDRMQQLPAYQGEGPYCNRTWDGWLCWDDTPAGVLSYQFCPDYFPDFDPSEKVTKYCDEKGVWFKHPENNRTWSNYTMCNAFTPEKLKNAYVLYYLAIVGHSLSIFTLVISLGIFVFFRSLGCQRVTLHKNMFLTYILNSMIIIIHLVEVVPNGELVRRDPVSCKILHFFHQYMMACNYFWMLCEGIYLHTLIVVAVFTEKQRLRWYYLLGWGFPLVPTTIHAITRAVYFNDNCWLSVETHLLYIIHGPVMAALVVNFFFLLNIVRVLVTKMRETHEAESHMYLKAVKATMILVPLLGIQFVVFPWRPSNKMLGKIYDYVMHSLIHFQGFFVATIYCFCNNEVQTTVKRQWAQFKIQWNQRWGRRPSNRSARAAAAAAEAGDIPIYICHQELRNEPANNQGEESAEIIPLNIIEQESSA
T1 sequence (O60896 24-148 partner): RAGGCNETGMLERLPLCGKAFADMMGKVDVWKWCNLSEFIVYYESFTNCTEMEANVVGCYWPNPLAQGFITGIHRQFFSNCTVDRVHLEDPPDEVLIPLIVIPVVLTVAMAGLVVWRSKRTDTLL
The data set is described as follows: Assay (II)a functional assay, human amylin receptor (CRE luciferase reporter in BHK cells). Type of data set: cell-based. The source says: (§1) 1. Luciferase Assay Outline
(§2) Activation of calcitonin and amylin (coexpression of calcitonin receptor and receptor activity modifying proteins (RAMP)) receptors lead to increased intracellular concentrations of cAMP. Consequently, transcription is activated by promoters containing multiple copies of the cAMP response element (CRE). It is thus possible to measure amylin activity by the use of a CRE luciferase reporter gene introduced into BHK cells also expressing calcitonin or amylin receptors.
(§3) A BHK570 cell line was stably transfected with the human calcitonin receptor and a CRE-responsive luciferase reporter gene. The cell line was further transfected with RAMP-3, using standard methods. This turns the calcitonin receptor into an amylin 3(a) receptor. Methotrexate, Neomycin, and Hygromycin are selection markers for luciferase, the calcitonin receptor, and RAMP-3, respectively.
(§4) To perform activity assays, BHK calcitonin (a) receptor- or amylin 3(a)-receptor/CRE-luc cells were seeded in white 96 well culture plates at a density of about 20.000 cells/well. […] After incubation overnight at 37° C. and 5% CO2, the growth medium was replaced by 50 μl/well assay medium (DMEM (without phenol red), Glutamax™, 10% FBS, and 10 mM Hepes, pH 7.4). Further, 50 μl/well of standard or sample in assay buffer were added. After 3 hours incubation at 37° C. and 5% CO2, the assay medium with standard or sample were removed and replaced by 100 μl/well PBS. Further, 100 μl/well LucLite™ was added. The plates were sealed and incubated at room temperature for 30 minutes. Finally, luminescence was measured on a TopCounter (Packard) in SPC (single photon counting) mode.

The target in data set [3] is T2, human calcitonin receptor (Homo sapiens, UniProt P30988).
T2 construct: expressed in transfected cells; CRE-luciferase reporter
T2 sequence (P30988 25-474): T1 sequence (P30988 25-474)
The experiment in a line: Assay (II)a functional assay, human calcitonin receptor (CRE luciferase reporter in BHK cells). Type of data set: cell-based.
Excerpt: as §1, §2, §3, §4

Like-named read-outs stand apart in the source and are kept apart here. Starred links: 1 amine or outer side, 2 acyl side, 3 side chain; linkers in the order of their positions; H or OH if unused. Positions of bridges follow the written chain, without caps; N, C: chain ends. Residues, ends and D or L forms follow the SMILES beside them. Groups on a side chain read outwards from the residue. *: point of attachment. C20 diacid = O=C(O)CCCCCCCCCCCCCCCCCCC(=O)*; γGlu = O=C(O)[C@H](CCC(=O)[*:2])N[*:1]

For `CC(C)C[C@H](NC(=O)[C@H](CCCNC(=N)N)NC(=O)[C@H](CCC(N)=O)NC(=O)[C@@H](NC(=O)[C@H](C)NC(=O)[C@@H]1CSSC[C@H](NC(=O)[C@@H](N)CCCCNC(=O)CC[C@H](NC(=O)CCCCCCCCCCCCCCCCCCC(=O)O)C(=O)O)C(=O)N[C@@H](CC(N)=O)C(=O)N[C@@H]([C@@H](C)O)C(=O)N[C@@H](C)C(=O)N[C@@H]([C@@H](C)O)C(=O)N1)[C@@H](C)O)C(=O)N[C@@H](C)C(=O)N[C@@H](CCC(=O)O)C(=O)N[C@@H](Cc1ccccc1)C(=O)N[C@@H](CC(C)C)C(=O)N[C@@H](Cc1c[nH]cn1)C(=O)N[C@@H](Cc1c[nH]cn1)C(=O)N[C@@H](CO)C(=O)N[C@@H](CO)C(=O)N[C@@H](CCC(N)=O)C(=O)N[C@@H](CC(N)=O)C(=O)N[C@@H](Cc1ccccc1)C(=O)NCC(=O)N[C@@H](C)C(=O)N1CCC[C@H]1C(=O)N[C@@H](CC(C)C)C(=O)N[C@@H](CO)C(=O)N[C@@H](CO)C(=O)N[C@H](C(=O)N[C@@H](CC(N)=O)C(=O)N[C@H](C(=O)NCC(=O)N[C@@H](CO)C(=O)N[C@@H](CC(N)=O)C(=O)N[C@H](C(=O)N1CCC[C@H]1C(N)=O)[C@@H](C)O)C(C)C)[C@@H](C)O` [Example 151, N-epsilon1-[(S)-4-Carboxy-4-(19-carboxynonadecanoylamino)butyryl]-[Glu14,His17,Gln21,Ala25,Pro26,Ser28,Ser29,Pro37]-pramlintide] (H-K([γGlu-C20 diacid])CNTATCATQRLAEFLHHSSQNFGAPLSSTNVGSNTP-NH2; disulfide 2-7 (inferred); N-terminus assumed), the solubility at 18 h in data set [1] (bistrispropane buffer, pH 6.5, read-out: Solubility) is above 200 µM; in data set [1] (bistrispropane buffer, pH 7.5, read-out: Solubility), above 200 µM; in data set [1] (bistrispropane buffer, pH 6.0, read-out: Solubility), above 200 µM; in data set [1] (bistrispropane buffer, pH 7.0, read-out: Solubility pH 7.0), above 200 µM; in data set [1] (bistrispropane buffer, pH 8.0, read-out: Solubility), above 200 µM; in data set [1] (glycylglycine buffer, pH 3.0, read-out: Solubility) it was above 200 µM. In addition, the solubility at 18 h in data set [1] (glycylglycine buffer, pH 4.0, read-out: Solubility pH 4.0) was above 200 µM; in data set [1] (glycylglycine buffer, pH 5.0, read-out: Solubility), above 200 µM; in data set [1] (pH 4.0, read-out: Solubility), above 200 µM; in data set [1] (pH 7.0, read-out: Solubility), above 200 µM. The concentration for a half-maximal effect (EC50) in data set [2] stood at 0.209 nM; in data set [2] (Table 4), 0.209 nM; in data set [2] (Table 6, human amylin receptor) it was 0.209 nM; in data set [2] (Table 7, human amylin receptor), 0.209 nM; in data set [2] (Table 11, human amylin receptor) it was 0.209 nM; in data set [3] (Table 7, human calcitonin (CTa) receptor) it was 0.0675 nM. In data set [3] (Table 11, human calcitonin receptor, read-out: CTa receptor human EC50), the EC50 was 0.0675 nM.
